Reference: patent US8143254B2, “Methods for modulating ion channels” (Cornell Research Foundation, Inc., priority 2005, dated 2012)

Target: T1, Kv2.1-K356C (Rattus norvegicus, UniProt P15387, K360C)
T1 construct: expressed in transfected cells; host or cells: Xenopus laevis oocytes (cRNA from pGA1)
T1 sequence (P15387 1-857 K360C): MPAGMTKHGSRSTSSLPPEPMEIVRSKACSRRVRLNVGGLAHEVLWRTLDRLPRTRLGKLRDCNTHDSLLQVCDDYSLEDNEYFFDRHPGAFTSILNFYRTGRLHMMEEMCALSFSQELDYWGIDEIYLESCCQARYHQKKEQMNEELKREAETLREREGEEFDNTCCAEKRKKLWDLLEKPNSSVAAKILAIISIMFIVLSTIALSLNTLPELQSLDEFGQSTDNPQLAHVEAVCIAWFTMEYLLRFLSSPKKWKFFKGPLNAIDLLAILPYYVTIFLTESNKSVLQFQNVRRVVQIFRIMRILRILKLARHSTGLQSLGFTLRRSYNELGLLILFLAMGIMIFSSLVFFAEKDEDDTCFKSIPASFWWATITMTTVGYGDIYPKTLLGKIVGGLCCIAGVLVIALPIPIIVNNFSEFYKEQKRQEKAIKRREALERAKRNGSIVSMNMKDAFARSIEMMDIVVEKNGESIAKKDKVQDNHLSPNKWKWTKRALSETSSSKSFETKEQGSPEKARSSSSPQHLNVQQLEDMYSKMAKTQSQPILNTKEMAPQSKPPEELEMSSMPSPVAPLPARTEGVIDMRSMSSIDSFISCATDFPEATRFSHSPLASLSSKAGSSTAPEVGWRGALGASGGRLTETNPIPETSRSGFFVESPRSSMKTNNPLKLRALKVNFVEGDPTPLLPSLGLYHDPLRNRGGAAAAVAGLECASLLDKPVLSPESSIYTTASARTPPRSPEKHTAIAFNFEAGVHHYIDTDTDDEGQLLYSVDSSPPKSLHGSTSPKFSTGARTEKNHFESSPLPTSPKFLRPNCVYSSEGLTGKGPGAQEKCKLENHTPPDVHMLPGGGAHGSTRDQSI
Test: Cysteine protection experiments, K356C variant of Kv2.1 in oocytes
Format: cell-based
Text: Kv2.1 mutants were constructed using the QuickChange Multi Site-Directed Mutagenesis Kit (Stratagene, La Jolla, Calif.). Mutant Kv2.1 genes (in the pGA1 oocyte expression vector for oocyte expression) were sequenced in their entirety to confirm appropriate mutations and check for inadvertent mutations, and then subcloned into a wild-type pGA1 backbone. For oocyte expression, Kv3.4 was in pBF1, Kv4.2 was in pRAT. cRNA transcripts were produced from SacII-linearized (Kv2.1), Mlullinearized (Kv3.4) and Not1-linearized (Kv4.2) DNA templates using the T3 (Kv2.1), SP6 (Kv3.4) and T7 (Kv4.2) mMessage mMachine kits (Ambion, Austin, Tex.). cRNA was quantified by spectrophotometry and its size integrity verified by gel electophoresis. Defolliculated stage V and VI Xenopus laevis oocytes (purchased from Nasco, Grand Island, N.Y.) were injected with 5 ng of cRNA encoding Kv2.1, Kv3.4 or Kv4.2. Chinese Hamster Ovary (CHO) cells were transfected with 0.25 μg Kv2.1 cDNA, 2 μg blank plasmid and 2 μg Green fluorescent Protein in pBOB using Supetfect transfection reagent (Qiagen) 24 hours before whole-cell voltage clamp studies.
Whole-cell two-electrode voltage-clamp (TEVC) recordings were performed on X laevis oocytes expressing cloned Kv2.1, Kv3.4 or Kv4.2 using a Warner OC-725C amplifier and pClamp9 (Axon Instruments, Foster City, Calif.) software. Oocytes were bathed in a small-volume Warner oocyte bath and viewed with a Fisher dissection microscope. Bath solution for whole-cell oocyte recordings was (in mM): 96 NaCl, 4 KCl, 0.7 MgCl2, 1 CaCl2, 10 HEPES (pH 7.4); whole-cell oocyte TEVC pipettes were of 0.2-2 M resistance when filled with 3 M KCl. Experiments were performed 24-48 hours after cRNA injection. For assessment of current-voltage relationships in the absence or presence of dabco derivatives, oocytes were held at −80 mV, stepped for 2 seconds at voltages between −80 mV and +60 mV in 20 mV steps (Kv2.1) or between −80 and +50 mV in 10 mV steps (Kv3.4), then held for 500 ms at −40 mV before returning to the holding potential. For assessment of block during wash-in of dabco derivatives at a single voltage, oocytes were held at −80 mV, and repetitively stepped to 0 mV for 2 s with an interpulse interval of 10 s or 60 s as indicated. A range of concentrations of dabco or dabco derivatives were washed in via the bath solution during repetitive single-voltage pulses (after an initial period of 5 pulses with control solution to ensure current stabilization) until equilibrium block was achieved, to establish dose-responses. Inhibited currents are compared to the current at the end of 5-pulse control period, thus some bar graphs show ‘control’ current values slightly less than 1, and with an error bar, to show how much currents deviate in the absence of drug. Washout was performed after the highest concentration of blocker was washed in. In cases where washout was achieved, only those recordings in which current returned to within 10% of original current level were used for construction of dose-response curves. For cysteine protection experiments using the K356C variant of Kv2.1, a dabco derivative (JC638.2a) was washed in to equilibrium block, followed by wash-in of a solution containing both JC638.2a and MTSET until no further changes in current were seen; following this the solution was washed out with standard bath solution. As controls for this protection analysis, JC638.2a or MTSET were washed in alone until equilibrium block, then washed out.

[1] = K356C-Kv2.1, JC638.2α plus MTSET

c1cc(C[N+]23CCN(CC2)CC3)ccc1C[N+]12CCN(CC1)CC2 [JC638.2α, α,α′-[bis(4-aza-1-azoniabicyclo[2.2.2]octanyl)]p-xylene]
current inhibition, administered alone (K356C mutant): 62±3%
reversibility of block with washout (K356C mutant, administered alone): reversed with washout
current inhibition, co-application with MTSET after pre-application [1]: 84±1%
reversibility with washout, co-application with MTSET [1]: completely reversible with washout
